As usually defined, the melting point is the temperature of the solid-liquid transition. By IC50 is commonly meant the concentration at which inhibition is half-maximal. A low value points to greater potency.

The values below come from patent US8188078B2 (Sanofi-Aventis, priority 2007, dated 2012).

One data set has as its target T1, MET (Homo sapiens, UniProt P08581).
T1 construct: endogenous in cells; host or cells: MKN45 cells
Put plainly: Test C: inhibition of the autophosphorylation of MET, ELISA technique (pppY1230, 1234, 1235), MKN45 cells. The data set is classed as cell-based. A digest of the protocol: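 MKN45 cells adhered 24 h, then treated 1 h with compound at 6 concentrations in duplicate, final range 10000 to 30 nM. Lysates assayed by phospho-MET (pY1230/1234/1235) sandwich ELISA with HRP chromogen read at 450 nm.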

T1 sequence (P08581 25-1390): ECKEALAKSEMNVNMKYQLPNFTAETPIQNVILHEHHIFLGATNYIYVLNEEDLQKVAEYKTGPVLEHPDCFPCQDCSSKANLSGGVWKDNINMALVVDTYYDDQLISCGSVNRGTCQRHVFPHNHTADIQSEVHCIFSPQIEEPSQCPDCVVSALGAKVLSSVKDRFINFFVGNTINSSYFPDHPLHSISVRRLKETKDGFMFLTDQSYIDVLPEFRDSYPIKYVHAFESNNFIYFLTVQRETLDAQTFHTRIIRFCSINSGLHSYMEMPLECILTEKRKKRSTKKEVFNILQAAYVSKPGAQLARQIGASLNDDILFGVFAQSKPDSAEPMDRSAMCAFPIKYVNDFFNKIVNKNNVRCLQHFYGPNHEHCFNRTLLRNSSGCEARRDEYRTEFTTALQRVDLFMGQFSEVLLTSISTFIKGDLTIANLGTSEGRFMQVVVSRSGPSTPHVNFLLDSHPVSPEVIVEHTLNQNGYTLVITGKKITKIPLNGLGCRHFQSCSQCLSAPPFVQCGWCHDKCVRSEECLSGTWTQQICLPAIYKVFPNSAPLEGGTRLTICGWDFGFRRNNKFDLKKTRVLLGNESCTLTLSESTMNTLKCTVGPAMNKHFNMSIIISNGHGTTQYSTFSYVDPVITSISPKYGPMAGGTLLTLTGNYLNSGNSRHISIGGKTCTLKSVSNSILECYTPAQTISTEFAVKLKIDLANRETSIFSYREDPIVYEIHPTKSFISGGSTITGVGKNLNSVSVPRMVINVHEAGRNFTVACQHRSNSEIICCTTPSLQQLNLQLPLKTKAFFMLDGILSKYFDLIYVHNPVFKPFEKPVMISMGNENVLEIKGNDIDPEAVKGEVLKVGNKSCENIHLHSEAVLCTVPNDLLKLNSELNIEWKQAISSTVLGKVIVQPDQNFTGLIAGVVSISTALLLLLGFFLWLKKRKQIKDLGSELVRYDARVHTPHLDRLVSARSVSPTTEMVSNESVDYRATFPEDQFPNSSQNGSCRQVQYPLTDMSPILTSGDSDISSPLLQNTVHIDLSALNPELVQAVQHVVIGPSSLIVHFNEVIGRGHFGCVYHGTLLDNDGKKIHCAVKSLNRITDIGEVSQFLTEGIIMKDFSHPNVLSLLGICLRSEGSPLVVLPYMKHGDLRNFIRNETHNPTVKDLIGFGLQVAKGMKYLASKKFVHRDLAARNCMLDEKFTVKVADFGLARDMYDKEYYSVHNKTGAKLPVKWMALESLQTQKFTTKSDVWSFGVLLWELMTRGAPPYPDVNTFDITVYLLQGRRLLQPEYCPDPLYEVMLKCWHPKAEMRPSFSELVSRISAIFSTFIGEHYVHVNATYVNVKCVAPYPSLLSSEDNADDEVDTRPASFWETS

Take `CC(Oc1ccc2nc(NC(=O)NCCN3CCOCC3)[nH]c2c1)c1c(Cl)cccc1Cl` (stereo not drawn) [Example 2, 1-{6-[1-(2,6-dichlorophenyl)ethoxy]-1H-benzimidazol-2-yl}-3-(2-morpholin-4-ylethyl)urea]: the melting point lay within 215 to 220 °C. This compound registered an IC50 on MET of 0.5 to 10 µM.

In turn, `CC(Oc1ccc2nc(NC(=O)NCCN3CCOCC3)[nH]c2c1)c1cc(F)ccc1Cl` (stereo not drawn) [Example 3, 1-{6-[1-(2-chloro-5-fluorophenyl)ethoxy]-1H-benzimidazol-2-yl}-3-(2-morpholin-4-ylethyl)urea] had a melting point of 210 °C. Further, the IC50 at MET is 0.5 to 10 µM.

For `CC(Oc1cc2[nH]c(NC(=O)NCCN3CCOCC3)nc2cc1F)c1c(Cl)cccc1Cl` (stereo not drawn) [Example 5, 1-{6-[1-(2,6-dichlorophenyl)ethoxy]-5-fluoro-1H-benzimidazol-2-yl}-3-(2-morpholin-4-ylethyl)urea], the melting point is 210 to 216 °C. For the same compound, the IC50 against MET was 0.5 to 10 µM.

As to `O=C(NCCN1CCOCC1)Nc1nc2ccc(OCc3c(Cl)cccc3Cl)cc2s1` [Example 10, 1-{6-[(2,6-dichlorobenzyl)oxy]-1,3-benzothiazol-2-yl}-3-(2-morpholin-4-ylethyl)urea], the melting point was 268 to 271 °C. In addition, the IC50 on MET lay within 0.5 to 10 µM.

In the case of `CC(Oc1ccc2nc(NC(=O)NCCN3CCOCC3)sc2c1)c1c(Cl)cccc1Cl` (stereo not drawn) [Example 17, 1-{6-[1-(2,6-dichlorophenyl)ethoxy]-1,3-benzothiazol-2-yl}-3-(2-morpholin-4-ylethyl)urea], the melting point lay in the range of 165 to 168 °C. On MET, this compound showed an IC50 of 0.5 to 10 µM.

In the case of `O=C(NCCN1CCOCC1)Nc1nc2cc(F)c(OCc3c(Cl)cccc3Cl)cc2s1` [Example 21, 1-{6-[(2,6-dichlorobenzyl)oxy]-5-fluoro-1,3-benzothiazol-2-yl}-3-(2-morpholin-4-ylethyl)urea], the melting point stood at 206 °C. The same compound displayed a half-inhibitory concentration (IC50) against MET of 0.5 to 10 µM.

On to `CC(Oc1ccc2nc(NC(=O)NCCN3CCOCC3)sc2c1)c1c(Cl)ccc(F)c1Cl` (stereo not drawn) [Example 24, 1-{6-[1-(2,6-dichloro-3-fluorophenyl)ethoxy]-1,3-benzothiazol-2-yl}-3-(2-morpholin-4-ylethyl)urea], for which the melting point stood at 110 °C. In addition, at MET, the IC50 is < 0.5 µM.

Compound `Cc1ccc(F)c(C(C)Oc2ccc3nc(NC(=O)NCCN4CCOCC4)sc3c2)c1Cl` (stereo not drawn) [Example 28, 1-{6-[1-(2-chloro-6-fluoro-3-methylphenyl)ethoxy]-1,3-benzothiazol-2-yl}-3-(2-morpholin-4-ylethyl)urea] yielded a melting point of 165 to 170 °C. This compound had an IC50 at MET of 0.5 to 10 µM.

The compound `CC(Oc1cc2sc(NC(=O)NCCN3CCOCC3)nc2cc1F)c1c(Cl)cccc1Cl` (stereo not drawn) [Example 29, 1-{6-[1-(2,6-dichlorophenyl)ethoxy]-5-fluoro-1,3-benzothiazol-2-yl}-3-(2-morpholin-4-ylethyl)urea] came in with a melting point of 200 to 205 °C. Besides, the IC50 on MET is < 0.5 µM.

`CC(Oc1cc2sc(NC(=O)NCCN3CCOCC3)nc2cc1F)c1c(Cl)ccc(F)c1Cl` (stereo not drawn) [Example 31, 1-{6-[1-(2,6-dichloro-3-fluorophenyl)ethoxy]-5-fluoro-1,3-benzothiazol-2-yl}-3-(2-morpholin-4-ylethyl)urea] returned a melting point of 226 to 228 °C. Moreover, the IC50 against MET is < 0.5 µM.

Compound `CC(Oc1ccc2nc(NC(=O)NCCN3CCC(Cc4ccccc4)CC3)sc2c1)c1c(Cl)ccc(F)c1Cl` (stereo not drawn) [Example 34, 1-[2-(4-benzylpiperidin-1-yl)ethyl]-3-{6-[1-(2,6-dichloro-3-fluorophenyl)ethoxy]-1,3-benzothiazol-2-yl}urea] gave a melting point of 133 to 139 °C. Also, at MET, the IC50 was in the range of 0.5 to 10 µM.

Compound `CC(Oc1ccc2nc(NC(=O)NCCN3CCN(Cc4ccccc4)CC3)sc2c1)c1c(Cl)ccc(F)c1Cl` (stereo not drawn) [Example 35, 1-[2-(4-benzylpiperazin-1-yl)ethyl]-3-{6-[1-(2,6-dichloro-3-fluorophenyl)ethoxy]-1,3-benzothiazol-2-yl}urea] came in with a melting point of 125 to 139 °C. For the same compound, the IC50 on MET was in the range of 0.5 to 10 µM.

`CC(Oc1ccc2nc(NC(=O)NCCN3CCN(C(=O)OC(C)(C)C)CC3)sc2c1)c1c(Cl)ccc(F)c1Cl` (stereo not drawn) [Example 36, 1,1-dimethylethyl 4-{2-[({6-[1-(2,6-dichloro-3-fluorophenyl)ethoxy]-1,3-benzothiazol-2-yl}carbamoyl)amino]ethyl}piperazine-1-carboxylate] showed a melting point of 87 °C. For the same compound, on MET, the IC50 was 0.5 to 10 µM.

Regarding `CC(Oc1ccc2nc(NC(=O)NCCN3CCNCC3)sc2c1)c1c(Cl)ccc(F)c1Cl.O=C(O)C(F)(F)F` (stereo not drawn) [Example 37, 1-{6-[1-(2,6-Dichloro-3-fluorophenyl)ethoxy]-1,3-benzothiazol-2-yl}-3-(2-piperazin-1-ylethyl)urea trifluoroacetate], the melting point is 138 to 169 °C. In addition, the IC50 against MET was < 0.5 µM.

For `CC(Oc1ccc2nc(NC(=O)NCCC3CCCN3C)sc2c1)c1c(Cl)ccc(F)c1Cl` (stereo not drawn) [Example 53, 1-{6-[1-(2,6-dichloro-3-fluorophenyl)ethoxy]-1,3-benzothiazol-2-yl}-3-[2-(1-methylpyrrolidin-2-yl)ethyl]urea], the IC50 on MET is < 0.5 µM.

Regarding `CC(Oc1ccc2nc(NC(=O)NCCN3CCCCCC3)sc2c1)c1c(Cl)ccc(F)c1Cl` (stereo not drawn) [Example 54, 1-(2-azepan-1-ylethyl)-3-{6-[1-(2,6-dichloro-3-fluorophenyl)ethoxy]-1,3-benzothiazol-2-yl}urea], at MET, the IC50 was < 0.5 µM.

Regarding `CC(Oc1ccc2nc(NC(=O)NCCN3CCN(C)CC3)sc2c1)c1c(Cl)ccc(F)c1Cl` (stereo not drawn) [Example 55, 1-{6-[1-(2,6-dichloro-3-fluorophenyl)ethoxy]-1,3-benzothiazol-2-yl}-3-[2-(4-methylpiperazin-1-yl)ethyl]urea], at MET, the IC50 is < 0.5 µM.

For `CC(Oc1ccc2nc(NC(=O)NCCN3C(C)CCCC3C)sc2c1)c1c(Cl)ccc(F)c1Cl` (stereo not drawn) [Example 56, 1-{6-[1-(2,6-dichloro-3-fluorophenyl)ethoxy]-1,3-benzothiazol-2-yl}-3-[2-(2,6-dimethylpiperidin-1-yl)ethyl]urea], the IC50 at MET was < 0.5 µM.

At MET, `CC(Oc1ccc2nc(NC(=O)NCc3ccncc3)sc2c1)c1c(Cl)ccc(F)c1Cl` (stereo not drawn) [Example 57, 1-{6-[1-(2,6-dichloro-3-fluorophenyl)ethoxy]-1,3-benzothiazol-2-yl}-3-(pyridin-4-ylmethyl)urea] had an IC50 of 0.5 to 10 µM.

`CC(Oc1ccc2nc(NC(=O)NCc3ccccn3)sc2c1)c1c(Cl)ccc(F)c1Cl` (stereo not drawn) [Example 58, 1-{6-[1-(2,6-dichloro-3-fluorophenyl)ethoxy]-1,3-benzothiazol-2-yl}-3-(pyridin-2-ylmethyl)urea] showed an IC50 against MET of 0.5 to 10 µM.

`CC(Oc1ccc2nc(NC(=O)NCc3cccnc3)sc2c1)c1c(Cl)ccc(F)c1Cl` (stereo not drawn) [Example 59, 1-{6-[1-(2,6-dichloro-3-fluorophenyl)ethoxy]-1,3-benzothiazol-2-yl}-3-(pyridin-3-ylmethyl)urea] yielded an IC50 at MET of 0.5 to 10 µM.

`CC(Oc1ccc2nc(NC(=O)NCCN3CCOCC3)sc2c1)c1c(F)ccc(F)c1F` (stereo not drawn) [Example 60, 1-(2-morpholin-4-ylethyl)-3-{6-[1-(2,3,6-trifluorophenyl)ethoxy]-1,3-benzothiazol-2-yl}urea]: the melting point was 187 °C. At MET, this compound gave an IC50 of 0.5 to 10 µM.

In the case of `CC(Oc1ccc2nc(NC(=O)NCCN3CCOCC3)sc2c1)c1c(F)ccc(Cl)c1Cl` (stereo not drawn) [Example 61, 1-{6-[1-(2,3-dichloro-6-fluorophenyl)ethoxy]-1,3-benzothiazol-2-yl}-3-(2-morpholin-4-ylethyl)urea], the melting point worked out at 200 °C. The IC50 at MET was < 0.5 µM.

In the case of `O=C(NCCN1CCOCC1)Nc1nc2ccc(OC(c3c(Cl)cccc3Cl)C(F)(F)F)cc2s1` (stereo not drawn) [Example 64, 1-{6-[1-(2,6-dichlorophenyl)-2,2,2-trifluoroethoxy]-1,3-benzothiazol-2-yl}-3-(2-morpholin-4-ylethyl)urea], the melting point lay within 150 to 160 °C. At MET, this compound yielded an IC50 of 0.5 to 10 µM.

For `CC(Oc1ccc2nc(NC(=O)CCCN3CCOCC3)sc2c1)c1c(Cl)ccc(F)c1Cl` (stereo not drawn) [Example 65, N-{6-[1-(2,6-dichloro-3-fluorophenyl)ethoxy]-1,3-benzothiazol-2-yl}-4-(morpholin-4-yl)butanamide], the melting point was in the range of 141 to 145 °C. The compound further displayed an IC50 against MET of 0.5 to 10 µM.

`CC(Oc1ccc2nc(NC(=O)C3CC3)sc2c1)c1c(Cl)ccc(F)c1Cl` (stereo not drawn) [Example 66, N-{6-[1-(2,6-dichloro-3-fluorophenyl)ethoxy]-1,3-benzothiazol-2-yl}cyclopropanecarboxamide]: the melting point was 194 to 199 °C. Also, the IC50 against MET is < 0.5 µM.

`CC(Oc1cc2sc(NC(=O)CCCN3CCCC3)nc2cc1F)c1c(Cl)ccc(F)c1Cl` (stereo not drawn) [Example 68, N-{6-[1-(2,6-dichloro-3-fluorophenyl)ethoxy]-5-fluoro-1,3-benzothiazol-2-yl}-4-(pyrrolidin-1-yl)butanamide] came in with a melting point of 153 to 157 °C. In addition, the IC50 on MET was < 0.5 µM.

Compound `CCN(CC)CCCOC(=O)Nc1nc2cc(F)c(OC(C)c3c(Cl)ccc(F)c3Cl)cc2s1` (stereo not drawn) [Example 70] came in with an IC50 on MET of 0.5 to 10 µM.

In the case of `CC(Oc1ccc2nc(NC(=O)OCCN3CCOCC3)sc2c1)c1c(Cl)ccc(F)c1Cl` (stereo not drawn) [Example 74], the IC50 against MET is < 0.5 µM.

Turning to `CC(Oc1cc2sc(NC(=O)NCCN3CCNC(=O)C3)nc2cc1F)c1c(Cl)ccc(F)c1Cl` (stereo not drawn) [Example 130, 1-{6-[1-(2,6-dichloro-3-fluorophenyl)ethoxy]-5-fluoro-1,3-benzothiazol-2-yl}-3-[2-(3-oxopiperazin-1-yl)ethyl]urea], the IC50 against MET was < 0.5 µM.

At MET, “{6-[1-(2,6-dichloro-3-fluorophenyl)ethoxy]-5-fluoro-1,3-benzothiazol-2-yl}2-(pyrrolidin-1-yl)ethyl carbamate [Example 73]” displayed an IC50 of 0.5 to 10 µM.
